How the values were obtained:
Format in all cases: cell-based
STAT3 = molecular target: T1, STAT3 (Homo sapiens, UniProt P40763); assay: STAT3 reporter gene assay (luciferase), LNCaP stable cell line (pSTAT3-TA-luc), IL-6 stimulation
T1 construct: plasmid pSTAT3-TA-luc), which contains a stably operating STAT3 promoter; endogenous in cells
Method in brief: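 Cytotoxicity was run on a duplicate plate with CellTiter-Glo, while the other plate gave luciferase read-outs from lysed LNCaP pSTAT3-TA-luc reporter cells. Cells were treated with graded compound concentrations plus IL-6 (10 ng/mL final) for 24–48 h in 3% DCC-FBS medium. Unstimulated and stimulated wells served as negative and positive controls.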

AGS = assay: Cell growth inhibition assay, stomach cancer cell line AGS; conditions: Homo sapiens; AGS stomach cancer cell line, 3,000 cells/well
MDA-MB-231 = assay: Cell growth inhibition assay, breast cancer cell line MDA-MB-231; conditions: Homo sapiens; MDA-MB-231 breast cancer cell line, 5,000 cells/well
LNCaP = assay: Cell growth inhibition assay, prostate cancer cell line LNCaP (medium with 10 ng/mL IL-6); conditions: Homo sapiens, medium supplemented with 10 ng/mL of IL-6, 10,000 cells/well

T1 sequence (P40763 whole entry): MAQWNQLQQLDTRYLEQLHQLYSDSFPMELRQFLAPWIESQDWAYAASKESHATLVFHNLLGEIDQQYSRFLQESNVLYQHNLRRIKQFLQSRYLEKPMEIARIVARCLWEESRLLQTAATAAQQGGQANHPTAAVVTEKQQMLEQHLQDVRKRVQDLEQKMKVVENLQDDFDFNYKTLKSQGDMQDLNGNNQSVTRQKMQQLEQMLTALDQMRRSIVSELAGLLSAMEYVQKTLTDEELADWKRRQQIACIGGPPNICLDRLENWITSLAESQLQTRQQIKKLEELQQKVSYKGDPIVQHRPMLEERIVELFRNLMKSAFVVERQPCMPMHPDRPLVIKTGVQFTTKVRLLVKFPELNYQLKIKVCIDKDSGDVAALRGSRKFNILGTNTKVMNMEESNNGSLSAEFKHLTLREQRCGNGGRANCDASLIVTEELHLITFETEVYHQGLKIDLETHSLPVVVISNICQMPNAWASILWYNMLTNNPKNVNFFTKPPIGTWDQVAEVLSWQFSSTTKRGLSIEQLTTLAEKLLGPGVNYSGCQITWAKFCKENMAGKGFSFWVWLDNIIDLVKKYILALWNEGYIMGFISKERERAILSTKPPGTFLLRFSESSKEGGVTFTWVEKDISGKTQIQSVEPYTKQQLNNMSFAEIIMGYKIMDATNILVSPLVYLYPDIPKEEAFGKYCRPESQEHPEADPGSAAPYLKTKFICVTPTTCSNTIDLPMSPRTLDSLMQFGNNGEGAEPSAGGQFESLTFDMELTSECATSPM

Structure (SMILES) | IC50 (STAT3) [µM] | IC50 (AGS) [µM] | IC50 (MDA-MB-231) [µM] | IC50 (LNCaP) [µM]
CS(=O)(=O)Nc1ccc2cc(C(=O)Nc3cc(OCC(F)F)cc(S(=O)(=O)c4cccc(OC(F)(F)F)c4)c3)[nH]c2c1 [Example 401, N-(3-(2,2-difluoroethoxy)-5-((3-(trifluoromethoxy)phenyl)sulfonyl)phenyl)-6-(methylsulfonamido)-1H-indole-2-carboxamide] | 4 | 7.3 | 2.5 | 8
COc1cc(NC(=O)c2cc3ccc(N(C)S(C)(=O)=O)cc3[nH]2)cc(-c2ccc(F)cc2F)c1 [Example 347, N-(2′,4′-difluoro-5-methoxy-[1,1′-biphenyl]-3-yl)-6-(N-methylmethylsulfonamido)-1H-indole-2-carboxamide] | 1.5 | 19.7 | 0.61 | 7.9
CS(=O)(=O)Nc1ccc2cc(C(=O)Nc3cccc(S(=O)(=O)c4ccccc4)c3)[nH]c2c1 [Example 395, 6-(methylsulfonamido)-N-(3-(phenylsulfonyl)phenyl)-1H-indole-2-carboxamide] | 2.1 | 20.6 | 4.2 | > 10
CC(C)COc1cc(NC(=O)c2cc3ccc(NS(C)(=O)=O)cc3[nH]2)cc(-c2ccc(F)cc2F)c1 [Example 367, N-(2′,4′-difluoro-5-isobutoxy-[1,1′-biphenyl]-3-yl)-6-(methylsulfonamido)-1H-indole-2-carboxamide] | 0.38 | 9.5 | 1.1 | 7.4
O=C(Nc1cccc(-c2ccccc2C(F)(F)F)c1)c1cc2cc([N+](=O)[O-])ccc2[nH]1 [Example 227, 5-nitro-N-(2′-(trifluoromethyl)-[1,1′-biphenyl]-3-yl)-1H-indole-2-carboxamide] | > 10 | 30 | – | > 10
CS(=O)(=O)Nc1ccc2cc(C(=O)Nc3cc(-c4ccc(F)cc4F)ccn3)[nH]c2c1 [Example 279, N-(4-(2,4-difluorophenyl)pyridin-2-yl)-6-(methylsulfonamido)-1H-indole-2-carboxamide] | 6.2 | 40.7 | – | > 10
COc1ccc(-c2cccc(NC(=O)c3cc4ccc([N+](=O)[O-])cc4[nH]3)c2)c(F)c1 [Example 295, N-(2′-fluoro-4′-methoxy-[1,1′-biphenyl]-3-yl)-6-nitro-1H-indole-2-carboxamide] | > 10 | > 50 | – | > 10
CC(C)(Oc1ccc2cc(C(=O)Nc3cccc(-c4ccc(F)cc4F)c3)[nH]c2c1)C(=O)O [Example 254, 2-((2-((2′,4′-difluoro-[1,1′-biphenyl]-3-yl)carbamoyl)-1H-indol-6-yl)oxy)-2-methylpropanoic acid] | > 10 | > 50 | – | > 10
CS(=O)(=O)Nc1ccc2cc(C(=O)Nc3cccc(-c4cc(C(N)=O)ccc4Cl)c3)[nH]c2c1 [Example 380, N-(5′-carbamoyl-2′-chloro-[1,1′-biphenyl]-3-yl)-6-(methylsulfonamido)-1H-indole-2-carboxamide] | > 10 | 42.6 | – | > 10
NS(=O)(=O)Nc1ccc2cc(C(=O)Nc3cccc(-c4ccc(F)cc4F)c3)[nH]c2c1 [Example 274, N-(2′,4′-difluoro-[1,1′-biphenyl]-3-yl)-6-(sulfamoylamino)-1H-indole-2-carboxamide] | > 10 | 17.9 | – | > 10
O=C(Nc1cccc(-c2ccc(F)cc2F)c1)c1cc2ccc([N+](=O)[O-])cc2[nH]1 [Example 225, N-(2′,4′-difluoro-[1,1′-biphenyl]-3-yl)-6-nitro-1H-indole-2-carboxamide] | > 10 | > 50 | – | > 10
COc1ccc(C(F)(F)F)c(-c2cccc(NC(=O)c3cc4ccc(NS(C)(=O)=O)cc4[nH]3)c2)c1 [Example 281, N-(5′-methoxy-2′-(trifluoromethyl)-[1,1′-biphenyl]-3-yl)-6-(methylsulfonamido)-1H-indole-2-carboxamide] | 7.1 | 16.6 | – | > 10
COC(=O)c1ccc(Cl)c(-c2ccnc(NC(=O)c3cc4ccc(NS(C)(=O)=O)cc4[nH]3)c2)c1 [Example 300, methyl 4-chloro-3-(2-(6-(methylsulfonamido)-1H-indole-2-carboxamido)pyridin-4-yl)benzoate] | 5.3 | > 50 | – | > 10
O=C(Nc1cccc(-c2ccccc2C(F)(F)F)c1)c1cc2ccc([N+](=O)[O-])cc2n1CCN1CCOCC1 [Example 252, 1-(2-morpholinoethyl)-6-nitro-N-(2′-(trifluoromethyl)-[1,1′-biphenyl]-3-yl)-1H-indole-2-carboxamide] | > 10 | 11.4 | – | > 10
CS(=O)(=O)Nc1ccc2cc(C(=O)Nc3cccc(-c4ccc(S(N)(=O)=O)cc4C(F)(F)F)c3)[nH]c2c1 [Example 283, 6-(methylsulfonamido)-N-(4′-sulfamoyl-2′-(trifluoromethyl)-[1,1′-biphenyl]-3-yl)-1H-indole-2-carboxamide] | 7.4 | 18.2 | – | > 10

The remaining lines, values ahead:

IC50 (STAT3) [µM] | IC50 (AGS) [µM] | IC50 (MDA-MB-231) [µM] | IC50 (LNCaP) [µM] | Structure (SMILES)
3.3 | 5.7 | > 10 | 9 | CS(=O)(=O)Nc1ccc2c(C(=O)Nc3cccc(-c4ccc(F)cc4F)c3)c[nH]c2c1 [Example 275, N-(2′,4′-difluoro-[1,1′-biphenyl]-3-yl)-6-(methylsulfonamido)-1H-indole-3-carboxamide]
0.39 | 9.6 | 0.52 | 5 | CN(c1ccc2cc(C(=O)Nc3cc(Br)cc(-c4ccc(F)cc4F)c3)[nH]c2c1)S(C)(=O)=O [Example 342, N-(5-bromo-2′,4′-difluoro-[1,1′-biphenyl]-3-yl)-6-(N-methylmethylsulfonamido)-1H-indole-2-carboxamide]
0.71 | 2.7 | 0.92 | 4.1 | CS(=O)(=O)Nc1ccc2cc(C(=O)Nc3cccc(-c4ccccc4C(F)(F)F)c3)[nH]c2c1 [Example 260, 6-(methylsulfonamido)-N-(2′-(trifluoromethyl)-[1,1′-biphenyl]-3-yl)-1H-indole-2-carboxamide]
2.7 | 24.6 | 1 | 4.6 | CS(=O)(=O)Nc1ccc2cc(C(=O)Nc3cccc(-c4cccnc4C(F)(F)F)c3)[nH]c2c1 [Example 293, 6-(methylsulfonamido)-N-(3-(2-(trifluoromethyl)pyridin-3-yl)phenyl)-1H-indole-2-carboxamide]
> 10 | 23.8 | – | > 10 | COc1ccc(C(F)(F)F)c(-c2cccc(NC(=O)c3cc4ccc([N+](=O)[O-])cc4[nH]3)c2)c1 [Example 282, N-(5′-methoxy-2′-(trifluoromethyl)-[1,1′-biphenyl]-3-yl)-6-nitro-1H-indole-2-carboxamide]
> 10 | > 50 | – | > 10 | CS(=O)(=O)Nc1ccc2cc(C(=O)Nc3cc(-c4cc(C(N)=O)ccc4Cl)ccn3)[nH]c2c1 [Example 381, N-(4-(5-carbamoyl-2-chlorophenyl)pyridin-2-yl)-6-(methylsulfonamido)-1H-indole-2-carboxamide]
> 10 | 37 | – | > 10 | O=C(Nc1cccc(-c2ccc(F)cc2C(F)(F)F)c1)c1nc2cc([N+](=O)[O-])ccc2[nH]1 [Example 235, N-(4′-fluoro-2′-(trifluoromethyl)-[1,1′-biphenyl]-3-yl)-5-nitro-1H-benzo[d]imidazole-2-carboxamide]
> 10 | 22 | – | > 10 | Cn1c(C(=O)Nc2cccc(-c3ccccc3C(F)(F)F)c2)cc2cc([N+](=O)[O-])ccc21 [Example 250, 1-methyl-5-nitro-N-(2′-(trifluoromethyl)-[1,1′-biphenyl]-3-yl)-1H-indole-2-carboxamide]
4.5 | 20 | – | 5.9 | O=C(Nc1cc(-c2ccc(F)cc2F)ccn1)c1cc2ccc(NS(=O)(=O)C3CC3)cc2[nH]1 [Example 278, 6-(cyclopropanesulfonamido)-N-(4-(2,4-difluorophenyl)pyridin-2-yl)-1H-indole-2-carboxamide]
> 10 | 17.6 | – | > 10 | CS(=O)(=O)Nc1ccc2cc(C(=O)Nc3cccc(S(=O)(=O)c4cccc(C#N)n4)c3)[nH]c2c1 [Example 406, N-(3-((6-cyanopyridin-2-yl)sulfonyl)phenyl)-6-(methylsulfonamido)-1H-indole-2-carboxamide]
> 10 | 20.5 | – | > 10 | O=C(Nc1cccc(-c2ccccc2C(F)(F)F)c1)c1nc2ccc([N+](=O)[O-])cc2s1 [Example 232, 6-nitro-N-(2′-(trifluoromethyl)-[1,1′-biphenyl]-3-yl)benzo[d]thiazole-2-carboxamide]
3.4 | 7.6 | – | 8 | CNc1ccc(-c2cccc(NC(=O)c3cc4ccc(NS(C)(=O)=O)cc4[nH]3)c2)c(C(F)(F)F)c1 [Example 386, N-(4′-(methylamino)-2′-(trifluoromethyl)-[1,1′-biphenyl]-3-yl)-6-(methylsulfonamido)-1H-indole-2-carboxamide]
3.6 | 35.2 | – | > 10 | COc1cc(C#N)cc(S(=O)(=O)c2cccc(NC(=O)c3cc4ccc(NS(C)(=O)=O)cc4[nH]3)c2)c1 [Example 411, N-(3-((3-cyano-5-methoxyphenyl)sulfonyl)phenyl)-6-(methylsulfonamido)-1H-indole-2-carboxamide]
